Converted amounts (≈) assume the structure as drawn. *1 amine or outer side, *2 acyl side, *3 side chain or, on linkers, in order; H or OH if unused. Where a SMILES comes first, the peptide text is derived from it. [ ]: non-standard residue; d: D form. X2 = Cn1c(=O)n([C@@H]2S[C@H]([C@@H](O)[C@@H](N[*:1])C(=O)[*:2])[C@H](O)[C@H]2O)cc/c1=N/C(N)=O; X3 = Cn1c(=O)ccn([C@@H]2S[C@H]([C@@H](O)[C@@H](N[*:1])C(=O)[*:2])[C@H](O)[C@H]2O)c1=O; Orn(N5-OH,N5-Ac) = CC(=O)N(O)CCC[C@H](N)C(=O)O
How the values were obtained:
[1] = system: Mycobacterium tuberculosis; experiment: Antimicrobial activity against Mycobacterium tuberculosis H37Rv assessed as microbial growth inhibition; format: functional
[2] = system: Proteus vulgaris; experiment: Antimicrobial activity against Proteus vulgaris assessed as microbial growth inhibition; format: functional
[3] = system: Escherichia coli; experiment: Antimicrobial activity against Escherichia coli assessed as microbial growth inhibition; format: functional
[4] = system: Pseudomonas aeruginosa; experiment: Antibacterial activity against Pseudomonas aeruginosa assessed as microbial growth inhibition; format: functional
[5] = system: Salmonella typhi; experiment: Antimicrobial activity against Salmonella enterica subsp. enterica serovar Typhi assessed as microbial growth inhibition; format: functional
[6] = system: Staphylococcus aureus; experiment: Antimicrobial activity against Staphylococcus aureus assessed as microbial growth inhibition; format: functional
[7] = system: Escherichia coli; experiment: Antimicrobial activity against Escherichia coli B808 assessed as microbial growth inhibition; format: functional
[8] = system: Escherichia coli; experiment: Antimicrobial activity against Escherichia coli AR0349 assessed as microbial growth inhibition; format: functional
[9] = system: Acinetobacter baumannii; experiment: Antimicrobial activity against Acinetobacter baumannii Naval-81 assessed as microbial growth inhibition; format: functional
[10] = system: Escherichia coli; experiment: Antimicrobial activity against Escherichia coli UTI89 assessed as microbial growth inhibition; format: functional
[11] = system: Escherichia coli; experiment: Antimicrobial activity against Escherichia coli AR0137 assessed as microbial growth inhibition; format: functional
[12] = system: Acinetobacter baumannii; experiment: Antimicrobial activity against Acinetobacter baumannii ACC00527 assessed as microbial growth inhibition; format: functional
[13] = system: Staphylococcus aureus; experiment: Antimicrobial activity against vancomycin intermediate Staphylococcus aureus assessed as microbial growth inhibition; format: functional
[14] = system: Escherichia coli; experiment: Antimicrobial activity against Escherichia coli AR0346 assessed as microbial growth inhibition; format: functional
[15] = system: Escherichia coli; experiment: Antimicrobial activity against Escherichia coli AR0494 assessed as microbial growth inhibition; format: functional
[16] = system: Escherichia coli; experiment: Antimicrobial activity against Escherichia coli ExPEC H5 assessed as microbial growth inhibition; format: functional
[17] = system: Escherichia coli; experiment: Antimicrobial activity against Escherichia coli AR0493 assessed as microbial growth inhibition; format: functional
[18] = system: Escherichia coli; experiment: Antimicrobial activity against Escherichia coli H4/5 assessed as microbial growth inhibition; format: functional
[19] = system: Escherichia coli; experiment: Antimicrobial activity against Escherichia coli IR57 assessed as microbial growth inhibition; format: functional
[20] = system: Escherichia coli; experiment: Antimicrobial activity against Escherichia coli BW25113 assessed as microbial growth inhibition; format: functional
[21] = system: Escherichia coli; experiment: Antimicrobial activity against Escherichia coli ATCC BAA-2469 assessed as microbial growth inhibition; format: functional
[22] = system: Escherichia coli; experiment: Antimicrobial activity against Escherichia coli AR0150 assessed as microbial growth inhibition; format: functional
[23] = system: Escherichia coli; experiment: Antimicrobial activity against Escherichia coli JW0451-2 assessed as microbial growth inhibition; format: functional
[24] = system: Escherichia coli; experiment: Antimicrobial activity against Escherichia coli AR089 assessed as microbial growth inhibition; format: functional
[25] = system: Escherichia coli; experiment: Antimicrobial activity against Escherichia coli NCTC 13441 assessed as microbial growth inhibition; format: functional
[26] = system: Enterococcus faecalis; experiment: Antimicrobial activity against vancomycin-resistant Enterococcus faecalis ATCC 51575 assessed as microbial growth inhibition; format: functional
[27] = system: Escherichia coli; experiment: Antimicrobial activity against Escherichia coli B096a assessed as microbial growth inhibition; format: functional
[28] = system: Escherichia coli; experiment: Antimicrobial activity against Escherichia coli Swiss 2 (AF45) assessed as microbial growth inhibition; format: functional
[29] = system: Escherichia coli; experiment: Antimicrobial activity against Escherichia coli IR45 assessed as microbial growth inhibition; format: functional
[30] = system: Escherichia coli; experiment: Antimicrobial activity against Escherichia coli IR3 assessed as microbial growth inhibition; format: functional
[31] = system: Staphylococcus aureus; experiment: Antimicrobial activity against methicillin-resistant Staphylococcus aureus ATCC 33591 assessed as microbial growth inhibition; format: functional
[32] = system: Escherichia coli; experiment: Antimicrobial activity against Escherichia coli AR0350 assessed as microbial growth inhibition; format: functional
[33] = system: Escherichia coli; experiment: Antimicrobial activity against Escherichia coli NCTC 13846 assessed as microbial growth inhibition; format: functional
[34] = system: Escherichia coli; experiment: Antimicrobial activity against Escherichia coli ATCC BAA-2340 assessed as microbial growth inhibition; format: functional
[35] = system: Escherichia coli; experiment: Antimicrobial activity against Escherichia coli AR055 assessed as microbial growth inhibition; format: functional
[36] = system: Escherichia coli; experiment: Antimicrobial activity against Escherichia coli NCTC 13462 assessed as microbial growth inhibition; format: functional
[37] = system: Enterococcus faecium; experiment: Antimicrobial activity against vancomycin-resistant Enterococcus faecium ATCC 51559 assessed as microbial growth inhibition; format: functional
[38] = system: Escherichia coli; experiment: Antimicrobial activity against Escherichia coli Swiss 15 assessed as microbial growth inhibition; format: functional
[39] = system: Escherichia coli; experiment: Antimicrobial activity against Escherichia coli Swiss 13 assessed as microbial growth inhibition; format: functional
[40] = system: Escherichia coli; experiment: Antimicrobial activity against Escherichia coli AR0114 assessed as microbial growth inhibition; format: functional
[41] = system: Acinetobacter baumannii; experiment: Antimicrobial activity against Acinetobacter baumannii GS2AB1 assessed as microbial growth inhibition; format: functional
[42] = system: Escherichia coli; experiment: Antimicrobial activity against Escherichia coli ATCC 25922 assessed as microbial growth inhibition; format: functional
[43] = system: Yersinia enterocolitica; experiment: Antimicrobial activity against Yersinia enterocolitica assessed as microbial growth inhibition; format: functional
[44] = Cytotoxicity against human L02 assessed as lethal dose; format: toxicity, cell-based; details: L02 cells, read-out: LD50 (the source's name)
[45] = system: Streptococcus pneumoniae; experiment: Antimicrobial activity against Streptococcus pneumoniae assessed as microbial growth inhibition; format: functional
[46] = system: Neisseria gonorrhoeae; experiment: Antimicrobial activity against Neisseria gonorrhoeae assessed as microbial growth inhibition; format: functional
[47] = system: Escherichia coli; experiment: Antibacterial activity against wild type Escherichia coli assessed as microbial growth inhibition; format: functional, organism-based
[48] = system: Escherichia coli; experiment: Antibacterial activity against enterobactin-deficient Escherichia coli harboring delta entA assessed as microbial growth inhibition; format: functional, organism-based
[49] = system: Escherichia coli; experiment: Antibacterial activity against enterobactin-deficient Escherichia coli harboring delta entB assessed as microbial growth inhibition; format: functional, organism-based
[50] = system: Bacillus subtilis; experiment: Antimicrobial activity against Bacillus subtilis assessed as microbial growth inhibition; format: functional

O=c1[nH]c2ccccc2[nH]/c1=N/N[C@@H]1O[C@H](CO)[C@@H](O)[C@H]1O
MIC [1]: 0.65 µM (≈ 0.2 µg/mL)
MIC [2]: 2.07 µM (≈ 0.638 µg/mL)
MIC [3]: 2.07 µM
MIC [4]: 2.07 µM (≈ 0.638 µg/mL)
MIC [5]: 7.8 µM (≈ 2.4 µg/mL)
MIC [6]: 2.07 µM

CN[C@H](CC(C)C)C(=O)N[C@H]1C(=O)N[C@@H](CC(N)=O)C(=O)N[C@H]2C(=O)N[C@H]3C(=O)N[C@H](C(=O)N[C@H](C(=O)O)c4cc(O)cc(O)c4-c4cc3ccc4O)[C@H](O)c3ccc(c(Cl)c3)Oc3cc2cc(c3O[C@@H]2O[C@H](CO)[C@@H](O)[C@H](O)[C@H]2O[C@H]2C[C@](C)(N)[C@H](O)[C@H](C)O2)Oc2ccc(cc2Cl)[C@H]1O [VANCOMYCIN]
MIC [7]: 64 µg/mL (≈ 44.2 µM)
MIC [8]: 64 µg/mL (≈ 44.2 µM)
MIC [9]: 64 µg/mL (≈ 44.2 µM)
MIC [10]: 64 µg/mL (≈ 44.2 µM)
MIC [11]: 64 µg/mL (≈ 44.2 µM)
MIC [12]: 64 µg/mL (≈ 44.2 µM)
MIC [13]: 13 µM (≈ 18.8 µg/mL)
MIC [14]: 64 µg/mL (≈ 44.2 µM)
MIC [15]: 64 µg/mL (≈ 44.2 µM)
MIC [16]: 64 µg/mL (≈ 44.2 µM)
MIC [17]: 64 µg/mL (≈ 44.2 µM)
MIC [18]: 64 µg/mL (≈ 44.2 µM)
MIC [19]: 64 µg/mL (≈ 44.2 µM)
MIC [20]: 64 µg/mL (≈ 44.2 µM)
MIC [21]: 64 µg/mL (≈ 44.2 µM)
MIC [22]: 64 µg/mL (≈ 44.2 µM)
MIC [23]: 64 µg/mL (≈ 44.2 µM)
MIC [24]: 64 µg/mL (≈ 44.2 µM)
MIC [25]: 64 µg/mL (≈ 44.2 µM)
MIC [26]: 250 µM (≈ 362 µg/mL)
MIC [27]: 64 µg/mL (≈ 44.2 µM)
MIC [28]: 64 µg/mL (≈ 44.2 µM)
MIC [29]: 64 µg/mL (≈ 44.2 µM)
MIC [30]: 64 µg/mL (≈ 44.2 µM)
MIC [31]: 0.63 µM (≈ 0.913 µg/mL)
MIC [32]: 64 µg/mL (≈ 44.2 µM)
MIC [33]: 64 µg/mL (≈ 44.2 µM)
MIC [34]: 64 µg/mL (≈ 44.2 µM)
MIC [35]: 64 µg/mL (≈ 44.2 µM)
MIC [36]: 64 µg/mL (≈ 44.2 µM)
MIC [37]: 750 µM (≈ 1090 µg/mL)
MIC [38]: 64 µg/mL (≈ 44.2 µM)
MIC [39]: 64 µg/mL (≈ 44.2 µM)
MIC [40]: 64 µg/mL (≈ 44.2 µM)
MIC [41]: 64 µg/mL (≈ 44.2 µM)
MIC [42]: 64 µg/mL (≈ 44.2 µM)

CN(Cc1cnc2nc(N)nc(N)c2n1)c1ccc(C(=O)N[C@@H](CCC(=O)O)C(=O)O)cc1 [METHOTREXATE]
MIC [43]: > 35.2 µM
CC50 [44]: 8 nM
MIC [45]: ≥ 2.2 µM

CC(=O)N(O)CCC[C@H](NC(=O)[C@H](CCCN(O)C(C)=O)NC(=O)[C@@H](N)CCCN(O)C(C)=O)C(=O)N[C@@H](CO)C(=O)N[C@@H](C(=O)O)[C@H](O)[C@H]1S[C@@H](n2ccc(=O)n(C)c2=O)[C@H](O)[C@H]1O (H-[Orn(N5-OH,N5-Ac)][Orn(N5-OH,N5-Ac)][Orn(N5-OH,N5-Ac)]S[X3]-OH)
MIC [46]: 0.004 µg/mL (≈ 0.00421 µM)

CC(=O)Oc1cccc(C(=O)NCCNC(=O)CN2CCN(CC(=O)NCCCC(=O)NC(C(=O)N[C@@H]3C(=O)N4[C@@H]3SC(C)(C)[C@@H]4C(=O)O)c3ccccc3)CCN(CC(=O)NCCNC(=O)c3cccc(OC(C)=O)c3OC(C)=O)CCN(CC(=O)NCCNC(=O)c3cccc(OC(C)=O)c3OC(C)=O)CC2)c1OC(C)=O (stereo partly drawn)
IC50 [47]: 30200 nM
IC50 [48]: 2100 nM
IC50 [49]: 2100 nM

CC(=O)N(O)CCC[C@H](NC(=O)[C@H](CCCN(O)C(C)=O)NC(=O)[C@@H](N)CCCN(O)C(C)=O)C(=O)N[C@@H](CO)C(=O)N[C@@H](C(=O)O)[C@H](O)[C@H]1S[C@@H](n2cc/c(=N/C(N)=O)n(C)c2=O)[C@H](O)[C@H]1O (H-[Orn(N5-OH,N5-Ac)][Orn(N5-OH,N5-Ac)][Orn(N5-OH,N5-Ac)]S[X2]-OH)
MIC [50]: 0.063 µg/mL (≈ 0.0634 µM)
MIC [3]: 0.031 µg/mL
MIC [6]: 0.063 µg/mL
MIC [45]: 0.063 µg/mL

From ChEMBL document CHEMBL5338723, “Emerging Target-Directed Approaches for the Treatment and Diagnosis of Microbial Infections” (J Med Chem, 2023)
